{"source": "patent US6365605B1", "about": "“Substituted hydrochromenopyrroles” (Les Laboratoires Servier, priority 1997, dated 2002)", "target": "T1, D3 receptors (expressed in CHO cells) (Homo sapiens, UniProt P35462)", "T1 construct": "expressed in transfected cells", "T1 sequence (P35462 whole entry)": "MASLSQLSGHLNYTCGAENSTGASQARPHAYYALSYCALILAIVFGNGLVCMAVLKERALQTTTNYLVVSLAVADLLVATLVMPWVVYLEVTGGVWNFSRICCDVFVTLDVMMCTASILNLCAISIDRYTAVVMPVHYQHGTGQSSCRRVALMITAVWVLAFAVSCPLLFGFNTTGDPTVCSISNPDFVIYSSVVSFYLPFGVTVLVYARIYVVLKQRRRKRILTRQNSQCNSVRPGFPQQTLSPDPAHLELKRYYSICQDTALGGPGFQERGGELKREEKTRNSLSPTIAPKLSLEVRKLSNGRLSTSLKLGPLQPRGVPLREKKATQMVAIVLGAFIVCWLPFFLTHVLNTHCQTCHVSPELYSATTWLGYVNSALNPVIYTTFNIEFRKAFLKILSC", "experiment": "In vitro measurement of the affinity to D2 and D3 receptors, [125I]-iodosulpiride radioligand, membrane preparations", "type": "binding", "conditions": "difference of pKi, D3 vs D2 receptors expressed in CHO cells", "method": "The affinity of the compounds of the invention to D2 and D3 receptors (expressed independently and in a stable manner in CHO cells) was determined with membrane preparations using [^125I]-iodosulpiride as radioligand (Sokoloff et al., quoted reference). The results are expressed as pKi."}
{"molecule": "CC(=O)Nc1ccc(CCN2CC3COc4ccc(C#N)cc4C3C2)cc1.Cl", "note": "(stereo not shown) [Example 4, (3aα,9bβ)-2-[2-(4-Acetylaminophenyl)ethyl]-8-cyano-1,2,3,3a,4,9b-hexahydrochromeno[3,4-c]pyrrole hydrochloride]", "values": [{"measurement": "selectivity for D3 receptors compared with D2 receptors", "value": "> 1.5", "unit": "log"}]}
